Experimental data from US10596190B2, “Method for reducing ototoxicity in pediatric patients receiving platinum-based chemotherapy” (priority 2017, dated 2020).
Read-outs that look alike come from different tables or passages of the source.

What was measured:
[1] = system: patients receiving Cisplatin chemotherapy for standard risk hepatoblastoma; type: in vivo, human
Description: The control arm included cisplatin only treated patients and the test arm including cisplatin treated patients followed by administration of STS.
The primary end point of the study was the rate of Brock grade ≥1 hearing loss determined after end of trial treatment or at an age of at least 3.5 years, whichever was later. Secondary end-points included: response to preoperative chemotherapy, complete resection, complete remission, event free survival (EFS), overall survival (OS), toxicity as graded by CTCAE v 3.0, long-term renal clearance, and feasibility of central audiology review
• Pre-operative randomised 1:1 chemotherapy (4 courses of Cisplatin, with or without STS, every second week) • Surgical removal of all remaining tumour lesions.
For all patients, the pre-surgery courses were given on day 1, 15, 29 and 43 (exceptionally, if surgery was delayed, courses could also be given on day 57 and 71). Post-surgery courses were started as soon as possible, but within 21 days with two courses given on day 1 and 15. […] The following treatment schedules were followed:
Administration Pre-hydration • At least 3 hours pre-hydration with 2.5% dextrose/0.45% saline • Run at 200 ml/m2/hr (total volume 600 ml/m^2) Cisplatin infusion over 6 hours • Cisplatin in 0.9% sodium chloride. […]

[2] = in a solution of sodium chloride; cited from earlier work
[3] = system: pediatric patients receiving cisplatin; conditions: for Incidence of hearing loss / Hearing loss: 4 weeks; for Mean change in hearing threshold: baseline to 4 weeks after cisplatin, negative = better threshold
Description: The study was designed as a multicentre, randomised, open-label, phase 3 clinical trial. Patients were enrolled at 38 participating Children's Oncology Group (COG) hospitals in the USA and Canada. Written consent or assent from participants or their legal guardians were obtained before registration. The study was approved by the US National Cancer Institute (NCI) Central Institutional Review Board and site institutional review boards. Co-enrollment onto a companion observational cohort study of ototoxicity grading scales was mandatory. Participants in the study were aged 1-18 years at study entry and were newly diagnosed with hepatoblastoma, germ cell tumour, medulloblastoma or CNS primitive neuroectodermal tumour, neuroblastoma, osteosarcoma, or other cancer types treated with cisplatin.
Key eligibility criteria included planned cumulative cisplatin dose of 200 mg/m^2 or more and infusion duration of 6 h or less; performance score of 50 or more by the Karnofsky (>16 years) or Lansky (≤16 years) scales; no previous cisplatin or carboplatin treatment; no known thiol hypersensitivity; and normal institutional laboratory values reflecting haematological, renal, and hepatic function. Normal hearing was required before enrolment as defined by hearing thresholds of 20 dB hearing level (HL) or less at 500-8000 Hz when measured with earphones or 25 dB HL or less when measured in the sound field, or as defined by brainstem auditory evoked response thresholds equivalent to behavioural thresholds of 20 dB HL or less. Previous cranial irradiation was initially not allowed but later permitted, provided hearing was normal, by a protocol amendment (Mar. 31, 2010) to augment trial recruitment. Patients were not eligible if they were registered on a cancer directed COG therapeutic study to avoid potential confounding of the primary aims by the ACCL0431 randomization.
The randomization was centrally computer-generated by the COG trial management system. Allocation was electronically concealed to all investigators, clinicians, and participants. Site research staff did the enrolment, entering eligibility confirmation and specification of stratification factors into the COG trial management system, and receiving the electronically generated allocation for the site. Randomization was 1:1 and was initially stratified into four groups defined by age (<5 years or ≥5 years) and duration of cisplatin infusion (<2 h or ≥2 h). Later, we added one separate stratum for eligible participants who had previously received cranial irradiation, irrespective of age or duration of cisplatin infusion. Randomization was masked for central reviewers of audiometry data, but was not placebo controlled for participants or treating clinicians to minimise complexity and cost for participating sites.
(§1) Cisplatin was administered as specified by each participant's cancer treatment plan. For participants randomly assigned to the control group, the cisplatin containing treatment regimen alone was to be administered. […] Concurrent use of other ototoxic drugs (eg, aminoglycosides and loop diuretics) was discouraged by protocol for all participants but captured in data reporting.
Hearing assessments were done at baseline, up to 8 days before each cisplatin course, 4 weeks after completion of the final cisplatin course, and 1 year later. Audiometry included measurement of bilateral pure tone air conduction thresholds at 500-8000 Hz with earphones or in the sound field using paediatric hearing assessment methods; otoscopy; immittance evaluation of middle ear function; and evoked otoacoustic emissions, if available. For participants unable to cooperate due to very young age, developmental disability, or medical status, brainstem auditory evoked response thresholds were to be measured instead.
Audiological testing was completed using standard clinical audiometers, middle ear analyzers, evoked potentials systems, and evoked otoacoustic emission OAE systems (if available).

[4] = system: pediatric patients receiving cisplatin; assay: Phase 3 trial of Example 1: haematological and renal toxicity, adverse events
Procedure: as §1
(§2) Secondary endpoints were frequency-specific hearing loss at 4 weeks (for 500 Hz, 1000 Hz, 2000 Hz, 4000 Hz, and 8000 Hz), haematological and renal toxicity, event free survival (defined as the time from study enrolment until disease relapse or progression, diagnosis of a second malignant neoplasm, or death, whichever came first), and overall survival (defined as the time from enrolment to death or last date confirmed alive). By protocol amendment on Mar.
For haematological and renal toxicity, denominators represent the number of participants who completed the required toxicity assessment during each cycle. For both types of toxicity, we assessed the hypothesis of no difference in incidence using a χ^2 test of proportions.

[5] = system: pediatric patients receiving cisplatin
Description: as §2
We estimated the probability of remaining event free as a function of time post-enrolment using the method of Kaplan and Meier. We compared risk of event across groups defined by randomised regimen using the log-rank statistic. We generated relative hazard ratios (RHR) and 95% CIs by fitting a relative-risk regression model, using partial likelihood where the model contained the characteristic of interest as the only variable. We computed survival estimates as 3-year event-free survival and 3-year overall survival. We did a post-hoc analysis of event-free survival and overall survival by extent of disease using the same methods. We considered all eligible participants in the survival analyses by intention to treat. We did all statistical calculations using SAS (version 9.4) or Stata (version 14).

[6] = cited from earlier work
[7] = system: small cell lung cancer cell cultures; conditions: cited from earlier work
[8] = all eligible, 61 participants assigned

Which results are given for `N.N.[Cl][Pt][Cl]` [cisplatin]?
Patients having Brock grade 0 or little to no hearing loss ([1]; by treatment arm): below 40%; Incidence rate of Brock ≥1 hearing loss ([1]; by treatment arm (cisplatin only or cisplatin followed by STS)): 67%; Stability post dilution [2]: ≤ 7 days

With sodium thiosulfate as the compound, how does the “Hearing loss (ASHA criteria), proportion of participants” value ([3]; 4 weeks after final cisplatin, all assessable participants (49 in STS group)) read?
The value was 28.6%.

And the “Incidence of hearing loss” value ([3]; after cisplatin infusion of 2-6 h)?
The value was 41.7%.

And the “Incidence of hearing loss” value ([3]; after cisplatin infusion of less than 2 h)?
The value was 16.0%.

And the “Incidence of hearing loss” value ([3]; older patients (5 years or more))?
The value was 31.4%.

What about the “Incidence of hearing loss” value ([3]; participants younger than 5 years) of the same compound?
The value was 21.4%.

And the Hearing loss ([3]; post-hoc, eight irradiated participants excluded)?
Its Hearing loss is 26.7%.

And the Hearing loss ([3]; stratum of previous cranial irradiation)?
Its Hearing loss is 50%.

What about the “Change between groups (Control vs STS) in mean hearing threshold change” value (“Change between groups (Control vs STS)” below) ([3]; 500 Hz) of the same compound?
Its value is 0.4.

And the “Mean change in hearing threshold” value ([3]; 500 Hz)?
The value was −1.5.

And the “Change between groups (Control vs STS)” value ([3]; 1000 Hz)?
The value was 0.4.

What about the “Mean change in hearing threshold” value ([3]; 1000 Hz) of the same compound?
Its value is −0.7.

What about the “Change between groups (Control vs STS)” value ([3]; 2000 Hz) of the same compound?
The value was 1.8.

What about the “Mean change in hearing threshold” value ([3]; 2000 Hz) of the same compound?
Its value is −1.2.

And the “Change between groups (Control vs STS)” value ([3]; 4000 Hz)?
Its value is 8.5.

And the “Mean change in hearing threshold” value ([3]; 4000 Hz)?
Its value is 1.1.

And the “Change between groups (Control vs STS)” value ([3]; 8000 Hz)?
Its value is 7.3.

And the “Mean change in hearing threshold” value ([3]; 8000 Hz)?
The value was 9.7.

And the ASHA-defined hearing loss ([3]; at 1 year, post-hoc analysis)?
The ASHA-defined hearing loss was 28%.

What about the “Hypokalaemia (most common non-haematological adverse event), participant cycles” value ([4]; 25 of 147 participant cycles) of the same compound?
The value was 17%.

And the “Aggregate nephrotoxicity, participant cycles affected” value ([4]; 37 of 147 participant cycles)?
The value was 25%.

And the “Grade 3-4 neutropenia, participant cycles” value ([4]; 117 of 177 participant cycles, irrespective of attribution)?
Its value is 66%.

And the “Haematological toxicity, participant cycles affected” value ([4]; 137 of 177 participant cycles)?
Its value is 77%.

What about the “Serious adverse events reported, number” value ([4]; in 26 patients) of the same compound?
The value was 194.

What about the “Haematological serious adverse events, number” value ([4]; in vivo) of the same compound?
The value was 70.

What about the “Hypophosphataemia and hypokalaemia vs control group” value ([4]; in vivo) of the same compound?
The value was “more common”.

What about the “Increased creatinine or reduced glomerular filtration rate meeting CTCAE grade 3 threshold” value ([4]; in vivo) of the same compound?
The value was “no cases”.

What about the “Non-haematological serious adverse events, number” value ([4]; in vivo) of the same compound?
The value was 85.

And the “Haematological serious adverse events deemed possibly related, number” value ([4]; of 70)?
The value was “four”.

And the “Haematological serious adverse events deemed unlikely related, number” value ([4]; of 70)?
Its value is 13.

And the “Haematological serious adverse events deemed unrelated, number” value ([4]; of 70)?
The value was 53.

And the “Haematological serious adverse events probably or definitely related” value ([4]; of 70)?
The value was “none”.

What about the “Non-haematological serious adverse events deemed possibly related, number” value ([4]; of 85) of the same compound?
The value was 11.

And the “Non-haematological serious adverse events deemed unlikely related, number” value ([4]; of 85)?
The value was 25.

And the “Non-haematological serious adverse events deemed unrelated, number” value ([4]; of 85)?
Its value is 49.

And the “Non-haematological serious adverse events probably or definitely related” value ([4]; of 85)?
Its value is “none”.

What about the “Serious adverse events deemed possibly related, number” value ([4]; of 194) of the same compound?
Its value is 20.

What about the “Serious adverse events deemed unlikely related, number” value ([4]; of 194) of the same compound?
Its value is 62.

What about the “Serious adverse events deemed unrelated, number” value ([4]; of 194) of the same compound?
Its value is 112.

What about the “Serious adverse events probably or definitely related” value ([4]; of 194) of the same compound?
Its value is “none”.

What about the “Serious adverse events: decreased platelet count, number” value ([4]; of 194, in 12 participants) of the same compound?
Its value is 23.

And the “Serious adverse events: decreased neutrophil count, number” value ([4]; of 194, in 14 participants)?
Its value is 26.

What about the “Serious adverse events: anaemia, number” value ([4]; of 194, in ten participants) of the same compound?
The value was 21.

And the “Deaths, number” value [5, 8]?
The value was 17.

And the “Events, number” value [5, 8]?
The value was 26.

What about the “Deaths, number” value ([5]; disseminated disease) of the same compound?
The value was 11.

And the “Events, number” value ([5]; disseminated disease)?
The value was 12.

And the “Event-free survival vs control group” value ([5]; disseminated disease (n=47))?
The value was “no difference”.

And the “Overall survival vs control group” value ([5]; disseminated disease (n=47))?
Its value is “significantly lower”.

What about the 3-year event-free survival ([5]; disseminated disease, post-hoc) of the same compound?
Its 3-year event-free survival is 42%.

And the 3-year overall survival ([5]; disseminated disease, post-hoc)?
The 3-year overall survival was 45%.

What about the 3-year event-free survival ([5]; entire sample) of the same compound?
The 3-year event-free survival was 54%.

And the 3-year overall survival ([5]; entire sample)?
The 3-year overall survival was 70%.

What about the “Event-free survival or overall survival vs control group” value ([5]; entire sample) of the same compound?
Its value is “no significant difference”.

What about the “Deaths, number” value ([5]; localised disease) of the same compound?
Its value is “six”.

And the “Events, number” value ([5]; localised disease)?
Its value is 14.

And the “Event-free survival or overall survival vs control group” value ([5]; localised disease (n=77))?
Its value is “no significant difference”.

And the 3-year event-free survival ([5]; localised disease, post-hoc)?
Its 3-year event-free survival is 60%.

What about the 3-year overall survival ([5]; localised disease, post-hoc) of the same compound?
The 3-year overall survival was 83%.

What about the “Excreted unchanged in the urine” value ([6]; following IV injection) of the same compound?
The value was “Up to 95%”.

And the Biological half-life ([6]; in vivo)?
The Biological half-life was 0.65 hours.

What about the “Biological half-life, range dependent on dose” value ([6]; in vivo) of the same compound?
The value was 16.5-182 minutes.

What about the “Effect of STS on cytotoxicity of etoposide” value ([7]; immediate or delayed addition of STS, incubation for 72 hours) of the same compound?
The value was “no reduction of cytotoxicity”.

What about the “Effect of STS on anti-tumor activity of doxorubicin, carmustine (BCNU), paclitaxel or methotrexate” value ([7]; similar studies) of the same compound?
Its value is “no reduction of anti-tumor activity”.
